US9492471B2, “Methods of treating a disease or disorder associated with Bruton'S Tyrosine Kinase” (Celgene Avilomics Research, Inc., priority 2013, dated 2016)
Like-named read-outs stand apart in the source and are kept apart here.

What was measured:
Test in all cases: HotSpot kinase profiling
Assay type in all cases: biochemical
ROCK1 = biological target: T1, ROCK1 (Homo sapiens, UniProt Q13464)
T1 construct: purchased Reaction Biology Corp
Procedure, shortened: (§1)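 Activity is measured by radiolabel transfer captured on P81 filters after a 2 h room-temperature reaction of kinase, substrate and cofactors. Values are percent inhibition against DMSO.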

PLK1 = biological target: T2, PLK1 (Homo sapiens, UniProt P53350)
T2 construct: purchased Reaction Biology Corp
Procedure, shortened: as §1

MEKK2 = biological target: T3, MEKK2 (Homo sapiens, UniProt Q9Y2U5)
T3 construct: purchased Reaction Biology Corp
T3 sequence (Q9Y2U5 1-619): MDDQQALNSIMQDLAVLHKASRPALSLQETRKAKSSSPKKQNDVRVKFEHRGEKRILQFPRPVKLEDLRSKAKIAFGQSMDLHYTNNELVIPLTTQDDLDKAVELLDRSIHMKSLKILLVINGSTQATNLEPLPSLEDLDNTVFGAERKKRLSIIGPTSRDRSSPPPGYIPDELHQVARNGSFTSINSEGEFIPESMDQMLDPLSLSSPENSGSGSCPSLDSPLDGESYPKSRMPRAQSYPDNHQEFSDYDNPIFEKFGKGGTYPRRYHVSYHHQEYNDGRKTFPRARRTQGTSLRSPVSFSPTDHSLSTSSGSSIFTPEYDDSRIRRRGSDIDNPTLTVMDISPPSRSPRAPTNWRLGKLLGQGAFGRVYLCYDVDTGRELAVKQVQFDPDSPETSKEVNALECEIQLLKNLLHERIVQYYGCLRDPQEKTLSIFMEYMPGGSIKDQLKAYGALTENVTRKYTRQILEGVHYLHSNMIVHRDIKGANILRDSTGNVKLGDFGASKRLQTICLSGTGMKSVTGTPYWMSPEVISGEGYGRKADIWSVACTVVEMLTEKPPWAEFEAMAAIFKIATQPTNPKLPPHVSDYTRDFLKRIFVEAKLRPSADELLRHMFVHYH
Procedure, shortened: as §1

EPHA4 = biological target: T4, EPHA4 (Homo sapiens, UniProt P54764)
T4 construct: purchased Reaction Biology Corp
Procedure, shortened: as §1

MLCK2/MYLK2 = biological target: T5, MLCK2/MYLK2 (Homo sapiens, UniProt Q9H1R3)
T5 construct: purchased Reaction Biology Corp
Procedure, shortened: as §1

MUSK = biological target: T6, MUSK (Homo sapiens, UniProt O15146)
T6 construct: purchased Reaction Biology Corp
T6 sequence (O15146 24-869): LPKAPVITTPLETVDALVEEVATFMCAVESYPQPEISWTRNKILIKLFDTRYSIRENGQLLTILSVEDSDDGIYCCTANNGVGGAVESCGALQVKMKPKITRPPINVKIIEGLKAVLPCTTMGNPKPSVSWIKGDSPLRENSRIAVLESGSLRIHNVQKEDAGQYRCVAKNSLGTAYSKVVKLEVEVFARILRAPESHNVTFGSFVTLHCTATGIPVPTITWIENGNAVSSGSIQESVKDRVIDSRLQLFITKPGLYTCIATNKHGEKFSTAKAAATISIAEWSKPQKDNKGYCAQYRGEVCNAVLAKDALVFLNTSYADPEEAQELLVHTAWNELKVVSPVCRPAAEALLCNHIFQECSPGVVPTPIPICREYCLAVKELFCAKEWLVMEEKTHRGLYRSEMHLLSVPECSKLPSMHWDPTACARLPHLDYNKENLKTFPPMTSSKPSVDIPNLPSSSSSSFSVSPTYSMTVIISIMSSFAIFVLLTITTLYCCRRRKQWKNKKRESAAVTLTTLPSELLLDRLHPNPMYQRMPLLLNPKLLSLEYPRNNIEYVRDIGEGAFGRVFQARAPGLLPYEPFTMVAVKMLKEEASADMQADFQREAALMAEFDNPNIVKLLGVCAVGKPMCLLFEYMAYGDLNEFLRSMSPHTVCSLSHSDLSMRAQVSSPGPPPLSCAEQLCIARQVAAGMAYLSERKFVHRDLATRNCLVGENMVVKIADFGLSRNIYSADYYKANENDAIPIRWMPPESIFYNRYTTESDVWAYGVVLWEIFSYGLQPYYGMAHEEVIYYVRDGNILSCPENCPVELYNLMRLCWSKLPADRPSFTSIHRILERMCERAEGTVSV
Procedure, shortened: as §1

LOK/STK10 = biological target: T7, LOK/STK10 (Homo sapiens, UniProt O94804)
T7 construct: purchased Reaction Biology Corp
Procedure, shortened: as §1

[1] = read-out: % Enzyme Activity (relative to DMSO controls) Run 1
[2] = read-out: % Enzyme Activity (relative to DMSO controls) Run 2

T1 sequence (Q13464 whole entry): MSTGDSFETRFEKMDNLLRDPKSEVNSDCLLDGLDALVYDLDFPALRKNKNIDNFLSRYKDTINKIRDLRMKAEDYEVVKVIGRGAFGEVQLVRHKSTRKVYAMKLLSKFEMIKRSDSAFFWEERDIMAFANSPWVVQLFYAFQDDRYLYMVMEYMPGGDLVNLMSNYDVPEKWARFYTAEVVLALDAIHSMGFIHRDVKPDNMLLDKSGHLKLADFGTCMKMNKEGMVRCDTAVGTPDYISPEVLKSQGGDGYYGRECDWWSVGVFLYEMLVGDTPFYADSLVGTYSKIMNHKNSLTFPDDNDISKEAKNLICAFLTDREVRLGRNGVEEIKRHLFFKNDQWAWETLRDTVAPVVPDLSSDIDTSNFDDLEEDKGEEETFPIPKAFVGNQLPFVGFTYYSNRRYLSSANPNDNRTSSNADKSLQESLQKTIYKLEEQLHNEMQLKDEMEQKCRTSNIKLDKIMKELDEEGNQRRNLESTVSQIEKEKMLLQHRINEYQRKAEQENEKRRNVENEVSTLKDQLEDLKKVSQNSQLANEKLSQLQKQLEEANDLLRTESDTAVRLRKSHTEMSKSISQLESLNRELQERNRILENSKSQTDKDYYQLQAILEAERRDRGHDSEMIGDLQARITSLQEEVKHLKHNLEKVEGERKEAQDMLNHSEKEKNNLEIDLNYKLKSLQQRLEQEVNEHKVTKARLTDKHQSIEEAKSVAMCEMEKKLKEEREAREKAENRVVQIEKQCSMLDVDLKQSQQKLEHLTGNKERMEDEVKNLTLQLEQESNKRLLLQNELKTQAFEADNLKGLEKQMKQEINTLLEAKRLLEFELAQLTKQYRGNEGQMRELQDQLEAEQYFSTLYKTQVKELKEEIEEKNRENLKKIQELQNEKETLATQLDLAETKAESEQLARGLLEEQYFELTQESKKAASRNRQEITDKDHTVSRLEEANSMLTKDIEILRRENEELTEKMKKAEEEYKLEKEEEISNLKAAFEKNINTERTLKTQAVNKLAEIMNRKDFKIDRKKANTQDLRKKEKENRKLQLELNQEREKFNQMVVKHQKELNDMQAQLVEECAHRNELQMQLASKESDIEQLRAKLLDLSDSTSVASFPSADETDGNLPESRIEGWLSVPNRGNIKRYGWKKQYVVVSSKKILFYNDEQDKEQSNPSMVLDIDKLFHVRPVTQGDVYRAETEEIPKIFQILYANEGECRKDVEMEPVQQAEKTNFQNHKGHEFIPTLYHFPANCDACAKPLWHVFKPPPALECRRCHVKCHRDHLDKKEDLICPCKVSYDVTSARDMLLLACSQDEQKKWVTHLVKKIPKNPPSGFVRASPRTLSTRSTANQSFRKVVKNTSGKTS
T7 sequence (O94804 whole entry): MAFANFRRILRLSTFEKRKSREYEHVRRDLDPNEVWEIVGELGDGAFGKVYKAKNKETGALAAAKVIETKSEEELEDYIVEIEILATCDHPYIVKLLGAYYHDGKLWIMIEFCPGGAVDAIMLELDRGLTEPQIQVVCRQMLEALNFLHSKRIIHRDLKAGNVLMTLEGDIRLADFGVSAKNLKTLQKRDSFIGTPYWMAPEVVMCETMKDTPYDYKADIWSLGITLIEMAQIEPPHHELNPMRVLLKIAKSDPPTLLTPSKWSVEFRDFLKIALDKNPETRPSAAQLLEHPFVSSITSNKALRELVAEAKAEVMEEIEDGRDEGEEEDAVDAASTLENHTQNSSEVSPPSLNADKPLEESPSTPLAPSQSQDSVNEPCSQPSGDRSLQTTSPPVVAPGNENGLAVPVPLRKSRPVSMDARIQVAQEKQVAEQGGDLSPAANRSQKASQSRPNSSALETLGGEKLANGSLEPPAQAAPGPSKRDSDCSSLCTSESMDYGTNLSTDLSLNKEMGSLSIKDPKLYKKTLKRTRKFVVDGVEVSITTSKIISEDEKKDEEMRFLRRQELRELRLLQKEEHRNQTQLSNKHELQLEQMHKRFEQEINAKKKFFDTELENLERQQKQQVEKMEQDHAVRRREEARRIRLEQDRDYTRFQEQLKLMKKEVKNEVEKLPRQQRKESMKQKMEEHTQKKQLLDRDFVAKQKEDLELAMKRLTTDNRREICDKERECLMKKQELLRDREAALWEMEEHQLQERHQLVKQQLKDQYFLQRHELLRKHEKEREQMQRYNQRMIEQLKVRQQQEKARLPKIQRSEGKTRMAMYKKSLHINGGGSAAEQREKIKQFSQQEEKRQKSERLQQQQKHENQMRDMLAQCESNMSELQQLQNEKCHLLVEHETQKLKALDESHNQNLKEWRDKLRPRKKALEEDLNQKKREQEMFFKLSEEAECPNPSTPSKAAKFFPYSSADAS
T2 sequence (P53350 whole entry): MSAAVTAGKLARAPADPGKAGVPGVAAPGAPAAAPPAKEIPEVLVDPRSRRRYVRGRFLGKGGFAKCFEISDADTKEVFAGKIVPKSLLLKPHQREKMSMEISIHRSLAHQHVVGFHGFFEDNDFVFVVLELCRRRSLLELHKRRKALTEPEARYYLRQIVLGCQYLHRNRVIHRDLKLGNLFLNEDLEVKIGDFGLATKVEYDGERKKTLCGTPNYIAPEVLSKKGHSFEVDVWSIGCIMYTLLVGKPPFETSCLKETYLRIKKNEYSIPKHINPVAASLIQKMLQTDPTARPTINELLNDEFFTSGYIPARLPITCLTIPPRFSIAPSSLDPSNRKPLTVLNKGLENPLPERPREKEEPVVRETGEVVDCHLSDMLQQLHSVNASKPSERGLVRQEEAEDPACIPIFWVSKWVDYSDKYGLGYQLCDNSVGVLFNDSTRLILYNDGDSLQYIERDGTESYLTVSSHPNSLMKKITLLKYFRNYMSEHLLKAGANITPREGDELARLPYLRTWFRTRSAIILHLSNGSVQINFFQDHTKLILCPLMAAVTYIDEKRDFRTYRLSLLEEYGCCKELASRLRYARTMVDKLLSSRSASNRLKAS
T4 sequence (P54764 20-986): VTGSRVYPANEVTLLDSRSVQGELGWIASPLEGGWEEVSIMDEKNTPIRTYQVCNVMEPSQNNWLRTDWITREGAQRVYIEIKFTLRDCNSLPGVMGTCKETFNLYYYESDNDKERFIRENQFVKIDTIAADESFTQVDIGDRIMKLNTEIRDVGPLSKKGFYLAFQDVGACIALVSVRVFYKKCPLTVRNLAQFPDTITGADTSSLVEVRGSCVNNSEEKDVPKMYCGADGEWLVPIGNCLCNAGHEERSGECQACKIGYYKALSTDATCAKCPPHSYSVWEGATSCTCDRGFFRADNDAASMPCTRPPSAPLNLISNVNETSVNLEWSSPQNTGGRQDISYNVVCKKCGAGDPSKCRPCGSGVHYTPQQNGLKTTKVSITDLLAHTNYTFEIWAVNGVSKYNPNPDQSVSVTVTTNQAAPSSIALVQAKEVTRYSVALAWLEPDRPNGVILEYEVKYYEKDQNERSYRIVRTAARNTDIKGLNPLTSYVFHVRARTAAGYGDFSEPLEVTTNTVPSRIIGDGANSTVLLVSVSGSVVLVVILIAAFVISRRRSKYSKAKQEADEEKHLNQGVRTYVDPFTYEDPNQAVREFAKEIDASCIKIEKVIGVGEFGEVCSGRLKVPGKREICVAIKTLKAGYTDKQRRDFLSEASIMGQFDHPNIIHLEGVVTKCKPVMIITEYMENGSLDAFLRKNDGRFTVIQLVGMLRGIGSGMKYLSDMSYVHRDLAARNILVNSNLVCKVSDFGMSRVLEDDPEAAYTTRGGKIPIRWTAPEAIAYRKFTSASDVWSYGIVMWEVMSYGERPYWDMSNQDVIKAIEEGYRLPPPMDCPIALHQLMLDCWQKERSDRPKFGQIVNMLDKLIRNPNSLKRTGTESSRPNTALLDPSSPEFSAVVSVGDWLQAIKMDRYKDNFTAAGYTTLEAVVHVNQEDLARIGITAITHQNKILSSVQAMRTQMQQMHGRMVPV

In the case of `C=CC(=O)Nc1cccc(Nc2nc(Nc3ccc(OCCOC)c(F)c3)ncc2F)c1` [Compound 2], the inhibition at 3 µM (ROCK1) is reported as -6.39%, the remaining activity at 3 µM (ROCK1; [1]) is reported as 108% and the remaining activity at 3 µM (ROCK1; [2]) is reported as 105%. It also gave an inhibition at 3 µM (PLK1) of 8.06%, a remaining activity at 3 µM (PLK1; [1]) of 91.1% and a remaining activity at 3 µM (PLK1; [2]) of 92.8%. For the same compound, the inhibition at 3 µM (MEKK2) was -10.9%, the remaining activity at 3 µM (MEKK2; [1]) was 108% and the remaining activity at 3 µM (MEKK2; [2]) was 114%. For the same compound, the inhibition at 3 µM (EPHA4) was 9.09%, the remaining activity at 3 µM (EPHA4; [1]) was 92.9% and the remaining activity at 3 µM (EPHA4; [2]) was 89%. The inhibition at 3 µM (MLCK2/MYLK2) was 30.1%, the remaining activity at 3 µM (MLCK2/MYLK2; [1]) was 71.6% and the remaining activity at 3 µM (MLCK2/MYLK2; [2]) was 68.1%. It also gave an inhibition at 3 µM (MUSK) of 30.9%, a remaining activity at 3 µM (MUSK; [1]) of 70.2% and a remaining activity at 3 µM (MUSK; [2]) of 68%. The inhibition at 3 µM (LOK/STK10) was 56.9%, the remaining activity at 3 µM (LOK/STK10; [1]) was 43.1% and the remaining activity at 3 µM (LOK/STK10; [2]) was 43%.
